Data set [1] is described as follows: Metabolic stability of the compound in human liver microsomes assessed as compound remaining at 2 mM after 30 mins by LC/MS analysis. It is filed as ADME, Microsome. The settings on record: read-out: Stability. On the technique in general: Liver microsomes are vesicles of endoplasmic reticulum, rich in cytochrome P450 enzymes.
The target in data set [2] is T1, Prostaglandin G/H synthase 2 (Homo sapiens, UniProt P35354).
T1 sequence (P35354 whole entry): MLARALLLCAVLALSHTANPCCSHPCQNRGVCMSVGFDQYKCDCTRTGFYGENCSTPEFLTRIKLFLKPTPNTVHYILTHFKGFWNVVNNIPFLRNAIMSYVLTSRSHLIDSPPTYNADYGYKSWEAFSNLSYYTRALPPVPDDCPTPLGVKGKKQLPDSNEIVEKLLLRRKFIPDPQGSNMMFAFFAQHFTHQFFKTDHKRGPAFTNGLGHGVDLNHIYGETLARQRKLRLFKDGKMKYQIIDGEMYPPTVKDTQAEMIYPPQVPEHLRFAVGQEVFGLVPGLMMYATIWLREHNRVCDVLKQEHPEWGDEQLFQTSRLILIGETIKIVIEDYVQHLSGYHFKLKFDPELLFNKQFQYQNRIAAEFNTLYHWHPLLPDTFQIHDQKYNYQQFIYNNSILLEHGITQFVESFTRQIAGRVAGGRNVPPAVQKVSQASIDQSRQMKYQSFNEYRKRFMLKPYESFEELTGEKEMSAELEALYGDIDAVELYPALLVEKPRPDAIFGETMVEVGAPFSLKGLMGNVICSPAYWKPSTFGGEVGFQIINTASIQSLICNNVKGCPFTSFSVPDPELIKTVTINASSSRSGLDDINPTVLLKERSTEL

For data set [3], the target named is Prostaglandin G/H synthase 1 (Homo sapiens, UniProt P23219).
Sequence of Prostaglandin G/H synthase 1 (P23219 whole entry): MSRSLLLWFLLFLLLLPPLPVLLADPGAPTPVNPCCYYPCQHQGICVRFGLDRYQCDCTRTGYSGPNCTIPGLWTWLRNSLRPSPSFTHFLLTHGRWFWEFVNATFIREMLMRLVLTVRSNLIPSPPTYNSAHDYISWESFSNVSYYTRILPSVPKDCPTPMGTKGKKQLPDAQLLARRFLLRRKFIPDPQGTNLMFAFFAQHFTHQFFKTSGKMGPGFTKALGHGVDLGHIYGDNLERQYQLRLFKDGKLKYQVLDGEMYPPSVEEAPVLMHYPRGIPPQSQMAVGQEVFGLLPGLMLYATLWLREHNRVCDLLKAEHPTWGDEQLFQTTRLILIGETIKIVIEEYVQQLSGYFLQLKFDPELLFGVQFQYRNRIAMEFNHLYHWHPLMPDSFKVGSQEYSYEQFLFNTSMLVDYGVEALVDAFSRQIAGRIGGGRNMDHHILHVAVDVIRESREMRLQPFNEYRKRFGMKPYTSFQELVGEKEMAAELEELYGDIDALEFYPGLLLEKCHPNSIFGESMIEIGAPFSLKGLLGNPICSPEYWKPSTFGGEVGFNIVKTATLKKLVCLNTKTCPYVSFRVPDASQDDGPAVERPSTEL
Another data set is filed under the species Homo sapiens. Nature of the data set: Selectivity ratio of IC50 for human COX1 to IC50 for human COX2.
Data set [4] in a line: Metabolic stability of the compound in rat liver microsomes assessed as compound remaining at 2 mM after 30 mins by LC/MS analysis. It is filed as ADME, Microsome. The settings on record: read-out: Stability.
A short description of data set [5]: Solubility of the compound. It counts as physicochemical. Conditions: read-out: Stability.
Data set [6] is described as follows: Half life in human. It is filed as ADME, organism-based. The settings on record: in vivo.

Structures are written as SMILES.

What is called IC50 is the concentration at which inhibition is half-maximal. Higher therefore signals weaker potency. A word on the half-life: it is how long it takes for the measured level to halve.

As to `CS(=O)(=O)Nc1ccc(-c2cc(Cl)cc3c2OC(C(F)(F)F)C(C(=O)O)=C3)cc1` (stereo not drawn), the remaining at 0.5 h came out at 100% in data set [1] and 53% in data set [4]. Also, the figures for the IC50 in data set [2] and in data set [3] were 40.1 µM and > 100 µM, respectively. Moreover, in the data set filed under Homo sapiens, the Selectivity ratio is > 2.5.
With `CC(C)Cc1ccc(-c2cc(Cl)cc3c2OC(C(F)(F)F)C(C(=O)O)=C3)cc1` (stereo not drawn), the values for the remaining at 0.5 h in data set [1] and in data set [4] were 88% and 96%, respectively. Besides, the IC50 in data set [2] turned out to be 13.4 µM; in data set [3], 26.5 µM. In the data set listed under Homo sapiens, the Selectivity ratio stood at 2.
For the molecule `O=C(O)C1=Cc2cc(Cl)cc(-c3ccc(F)cc3)c2OC1C(F)(F)F` (stereo not drawn), the IC50 in data set [2] is > 100 µM. Besides, in the data set listed under Homo sapiens, the Selectivity ratio is < 0.007.
On to `O=C(O)C1=Cc2cc(Cl)cc(-c3ccc(C(=O)O)cc3)c2OC1C(F)(F)F` (stereo not drawn), for which the remaining at 0.5 h in data set [1] was 90%; in data set [4], 91%. Also, the IC50 in data set [2] and in data set [3] was > 100 µM in each case.
For the molecule `NS(=O)(=O)c1ccc(-c2cc(Cl)cc3c2OC(C(F)(F)F)C(C(=O)O)=C3)cc1` (stereo not drawn), half-maximal inhibition in data set [3] (IC50) required 91.4 µM. For the same molecule, the Selectivity ratio in the data set filed under Homo sapiens amounted to 120.
In the case of `COc1ccc(-c2cc(Cl)cc3c2OC(C(F)(F)F)C(C(=O)O)=C3)cc1C` (stereo not drawn), the results for the remaining at 0.5 h in data set [1] and in data set [4] were 84% and 61%, respectively. For the same molecule, the IC50 in data set [2] is 0.339 µM; in data set [3], > 100 µM. In the data set listed under Homo sapiens, the Selectivity ratio is > 295.
Turning to `Nc1ccc(-c2cc(Cl)cc3c2OC(C(F)(F)F)C(C(=O)O)=C3)cc1` (stereo not drawn), the remaining at 0.5 h was determined as 93% in data set [1] and 53% in data set [4]. The IC50 in data set [2] stood at 1.82 µM; in data set [3], 1.39 µM. Further, in the data set listed under Homo sapiens, the Selectivity ratio amounted to 0.764.
As to `O=C(O)C1=Cc2cc(Cl)cc(Cl)c2OC1C(F)(F)F` (stereo not drawn), the remaining at 0.5 h in data set [1] and in data set [4] was 100% in each case. The solubility in data set [5] is > 30 µM. Also, in data set [6], the half-life was 15 days.
With `O=C(O)C1=Cc2cc(Cl)cc(-c3ccc(CO)cc3)c2OC1C(F)(F)F` (stereo not drawn), the figures for the remaining at 0.5 h in data set [1] and in data set [4] were 93% and 75%, respectively. For the same molecule, the figures for the IC50 in data set [2] and in data set [3] were 6.38 µM and 2.44 µM, respectively. For the same molecule, the Selectivity ratio in the data set filed under Homo sapiens turned out to be 0.38.
Take `Cc1ccc(-c2cc(Cl)cc3c2OC(C(F)(F)F)C(C(=O)O)=C3)cc1F` (stereo not drawn): the remaining at 0.5 h in data set [1] stood at 31%; in data set [4] it was 55%. Further, the Selectivity ratio in the data set filed under Homo sapiens came out at 375.
As to `O=C(O)C1=Cc2cc(Cl)cc(-c3ccc(O)cc3)c2OC1C(F)(F)F` (stereo not drawn), the remaining at 0.5 h was found to be 91% in data set [1] and 94% in data set [4]. For the same molecule, the values for the IC50 in data set [2] and in data set [3] were 3.48 µM and 2.91 µM, respectively. Besides, in the data set filed under Homo sapiens, the Selectivity ratio was 0.84.
In the case of `O=C(O)C1=Cc2cc(Cl)cc(-c3ccc(Cl)cc3)c2OC1C(F)(F)F` (stereo not drawn), the remaining at 0.5 h in data set [1] stood at 53%; in data set [4], 57%. Besides, the IC50 in data set [2] worked out at 0.0211 µM; in data set [3] it was 0.242 µM. For the same molecule, in the data set listed under Homo sapiens, the Selectivity ratio amounted to 11.4.
In the case of `CCOc1ccc(-c2cc(Cl)cc3c2OC(C(F)(F)F)C(C(=O)O)=C3)cc1` (stereo not drawn), the remaining at 0.5 h in data set [1] was determined as 91%; in data set [4] it was 82%. Besides, the IC50 was determined as 0.355 µM in data set [2] and 32 µM in data set [3]. The Selectivity ratio in the data set listed under Homo sapiens stood at 90.1.
As to `CCc1ccc(-c2cc(Cl)cc3c2OC(C(F)(F)F)C(C(=O)O)=C3)cc1` (stereo not drawn), the remaining at 0.5 h in data set [1] was 18%; in data set [4], 60%. In data set [3], this molecule had an IC50 of 17.7 µM. For the same molecule, the Selectivity ratio in the data set listed under Homo sapiens was determined as 226.
For the molecule `CS(=O)(=O)c1ccc(-c2cc(Cl)cc3c2OC(C(F)(F)F)C(C(=O)O)=C3)cc1` (stereo not drawn), the IC50 in data set [2] was 21.3 µM; in data set [3], 3.87 µM. The Selectivity ratio in the data set filed under Homo sapiens amounted to 0.182.
`CCSc1ccc(-c2cc(Cl)cc3c2OC(C(F)(F)F)C(C(=O)O)=C3)cc1` (stereo not drawn): the figures for the remaining at 0.5 h in data set [1] and in data set [4] were 75% and 47%, respectively. For the same molecule, the IC50 in data set [2] was determined as 0.242 µM.
As for `O=C(O)C1=Cc2cc(Cl)cc(-c3ccccc3)c2OC1C(F)(F)F` (stereo not drawn), the IC50 was 0.188 µM in data set [2] and 1.54 µM in data set [3]. Besides, the Selectivity ratio in the data set filed under Homo sapiens is 8.2.
As for `Cc1ccc(-c2cc(Cl)cc3c2OC(C(F)(F)F)C(C(=O)O)=C3)cc1` (stereo not drawn), the remaining at 0.5 h in data set [1] came to 18%; in data set [4], 60%. In addition, the IC50 in data set [2] turned out to be 0.103 µM; in data set [3], 4.34 µM. The Selectivity ratio in the data set filed under Homo sapiens was determined as 42.1.

Values taken from ChEMBL document CHEMBL1667779, “Structure-based parallel medicinal chemistry approach to improve metabolic stability of benzopyran COX-2 inhibitors” (Bioorg Med Chem Lett, 2011).
